Experimental data as given in patent US20220119456A1, “ANTI-SARS-COV-2 FUSION PEPTIDES” (KING FAISAL UNIVERSITY, priority 2020, published 2022).
Read-outs that look alike come from different tables or passages of the source. Where a SMILES comes first, the peptide text is derived from it.

Assays:
[1] = tested on: SARS-CoV-2 Spike-mediated cell-cell fusion
[2] = tested on: SARS-CoV-2; settings: for reduction in SARS-CoV-2 plaques formation: 10 μM peptide, Vero E6 cells
[3] = tested on: SARS-CoV-2 S pseudotyped VSV viral particles
[4] = tested on: SARS-CoV-2 S pseudotyped VSV viral particles; remark: listed apart in the source
[5] = tested on: SARS-CoV-2 S pseudotyped VSV viral particles; remark: listed apart in the source
[6] = S pseudotyped VSV viral particles

Structure (SMILES)	IC50 [1]	IC50 [2]	reduction in SARS-CoV-2 plaques formation [2]	IC50 [3]	inhibition against the infection through the endocytosis pathway in VeroE6 cells [4]	IC50 [4, 6]	inhibition of TMPRSS2-dependent pseudovirus infection through plasma membrane [5]	IC50 [5, 6]
CC[C@H](C)[C@H](NC(=O)CNC(=O)[C@H](CCCNC(=N)N)NC(=O)[C@@H](NC(=O)[C@H](CCC(N)=O)NC(=O)[C@H](CCCNC(=N)N)NC(=O)[C@H](CC(C)C)NC(=O)[C@H](CCCNC(=N)N)NC(=O)[C@@H](N)Cc1c[nH]cn1)[C@@H](C)CC)C(=O)N[C@@H](CCCNC(=N)N)C(=O)N[C@@H](C)C(=O)N[C@@H](CCCNC(=N)N)C(=O)N[C@H](C(=O)N[C@H](C(=O)N[C@@H](CCC(N)=O)C(=O)N[C@H](C(=O)N[C@@H](CCC(N)=O)C(=O)N[C@@H](CCCCN)C(=O)N[C@@H](CCC(=O)O)C(=O)N[C@H](C(=O)N[C@@H](Cc1c[nH]c2ccccc12)C(=O)N[C@@H](CCCNC(=N)N)C(=O)N[C@@H](CC(C)C)C(=O)N[C@@H](CC(N)=O)C(=O)N[C@@H](CCC(=O)O)C(=O)N[C@H](C(=O)N[C@@H](C)C(=O)N[C@@H](CCCCN)C(=O)N[C@@H](CC(C)C)C(=O)N[C@@H](CC(C)C)C(=O)N[C@@H](CC(N)=O)C(=O)N[C@@H](CCC(=O)O)C(=O)N[C@@H](CO)C(=O)N[C@@H](CC(C)C)C(=O)N[C@H](C(=O)N[C@@H](Cc1ccc(O)cc1)C(=O)N[C@@H](CC(C)C)C(=O)N[C@@H](CCC(N)=O)C(=O)N[C@@H](CCC(=O)O)C(=O)O)[C@@H](C)CC)C(C)C)[C@@H](C)CC)[C@@H](C)CC)C(C)C)C(C)C [#125] (H-HRLRQIRGIRARVVQIQKEIWRLNEVAKLLNESLIYLQE-OH)	4400 nM	460 nM	75%					
CC[C@H](C)[C@H](NC(=O)CNC(=O)[C@H](CO)NC(=O)[C@@H](NC(=O)[C@H](CC(=O)O)NC(=O)CNC(=O)[C@H](CC(C)C)NC(=O)[C@@H](NC(=O)[C@@H](N)Cc1c[nH]cn1)C(C)C)[C@@H](C)CC)C(=O)N[C@@H](CC(N)=O)C(=O)N[C@@H](C)C(=O)N[C@@H](CO)C(=O)N[C@H](C(=O)N[C@H](C(=O)N[C@@H](CCC(N)=O)C(=O)N[C@H](C(=O)N[C@@H](CCC(N)=O)C(=O)N[C@@H](CCCCN)C(=O)N[C@@H](CCC(=O)O)C(=O)N[C@H](C(=O)N[C@@H](CC(=O)O)C(=O)N[C@@H](CCCNC(=N)N)C(=O)N[C@@H](CC(C)C)C(=O)N[C@@H](CC(N)=O)C(=O)N[C@@H](CCC(=O)O)C(=O)N[C@H](C(=O)N[C@@H](C)C(=O)N[C@@H](CCCCN)C(=O)N[C@@H](CC(N)=O)C(=O)N[C@@H](CC(C)C)C(=O)N[C@@H](Cc1c[nH]cn1)C(=O)N[C@@H](CCC(=O)O)C(=O)N[C@@H](CO)C(=O)N[C@@H](CC(C)C)C(=O)N[C@H](C(=O)N[C@@H](Cc1ccc(O)cc1)C(=O)N[C@@H](CC(C)C)C(=O)N[C@@H](CCC(N)=O)C(=O)N[C@@H](CCC(=O)O)C(=O)O)[C@@H](C)CC)C(C)C)[C@@H](C)CC)[C@@H](C)CC)C(C)C)C(C)C [#121]	720 nM		approximately 15%	160 nM	≤ 38%	> 10000 nM	strong inhibition	< 1000 nM
